pIC50: −log10 of the molar value. Like-named read-outs stand apart in the source and are kept apart here.

For this assay, the target named is hT2R8 (Homo sapiens (Human), UniProt Q9NYW2). Put plainly: hT2R8 antagonist high-throughput FLIPR assay, stable cell line with G16g44, agonist andrographolide. The conditions noted are these: for IC50: unit uM, read-out: IC50 on hT2R08 bitter receptor. It is filed as cell-based. Summed up: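 HEK293 cells stably co-expressing hT2R8 and chimeric G16g44, read on FLIPR. Test compounds added together with andrographolide (200 μM), which drives the receptor to 70–80% of maximal activity; antagonism seen as reduced agonist response.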

The mark [1] stands for this setting: read-out: IC50 on hT2R8 bitter receptor.
Setting [2] is: table after Example 10-97, read-out: hT2R8 IC50.
Setting [3] is: table after Example 12-37, read-out: hT2R8 IC50.

hT2R8, sequence (Q9NYW2 whole entry): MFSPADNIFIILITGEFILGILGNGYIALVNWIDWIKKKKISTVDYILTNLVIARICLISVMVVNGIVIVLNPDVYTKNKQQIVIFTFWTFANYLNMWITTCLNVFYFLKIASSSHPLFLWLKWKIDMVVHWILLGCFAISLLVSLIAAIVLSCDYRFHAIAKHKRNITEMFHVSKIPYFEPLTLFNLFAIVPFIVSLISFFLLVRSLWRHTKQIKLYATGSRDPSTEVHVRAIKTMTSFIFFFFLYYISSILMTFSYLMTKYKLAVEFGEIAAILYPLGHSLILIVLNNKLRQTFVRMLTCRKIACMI

The term pIC50 denotes the IC50 on a negative log10 scale, so that one unit is a factor of ten. Turning to `Cc1noc(C)c1Cn1cc(N2C(=O)NC(C(C)C)C2=O)cn1` (centres unmarked) [Example 10-62, 3-(1-((3,5-dimethylisoxazol-4-yl)methyl)-1H-pyrazol-4-yl)-5-isopropylimidazolidine-2,4-dione], the pIC50 was 5.96 under setting [1] and 5.84 under setting [2].
Turning to `Cc1noc(C)c1Cn1cc(NS(=O)(=O)c2ccccc2C#N)cn1` [Example 4-99, 2-cyano-N-(1-((3,5-dimethylisoxazol-4-yl)methyl)-1H-pyrazol-4-yl)benzenesulfonamide], the pIC50 (Table A, read-out: hT2R8 IC50) is 5.87.
As to `Cc1noc(C)c1Cn1cc(N2C(=O)CN(CCc3ccccc3Cl)C2=O)cn1` [Example 10-81, 1-(2-chlorophenethyl)-3-(1-((3,5-dimethylisoxazol-4-yl)methyl)-1H-pyrazol-4-yl)imidazolidine-2,4-dione], the pIC50 runs as follows: under setting [1], 6.60; under setting [2], 6.61.
Turning to `Cc1noc(C)c1Cn1cc(NC(=S)Nc2cccnc2)cn1` [Example 4-107, 1-(1-((3,5-dimethylisoxazol-4-yl)methyl)-1H-pyrazol-4-yl)-3-(pyridin-3-yl)thiourea], where the note is “Table A, read-out: hT2R8 IC50”, the pIC50 is 5.52.
Same read-out and setting: with `COc1ccc(CC(=O)Nc2cnn(Cc3c(C)noc3C)c2)cc1O` [Example 4-70, N-(1-((3,5-dimethylisoxazol-4-yl)methyl)-1H-pyrazol-4-yl)-2-(3-hydroxy-4-methoxyphenyl)acetamide] the figure was 5.51; with `COc1cccc(CN(Cc2cccc(OC)c2OC)c2cnn(Cc3c(C)noc3C)c2)c1OC` [Example 4-64, N,N-bis(2,3-dimethoxybenzyl)-1-((3,5-dimethylisoxazol-4-yl)methyl)-1H-pyrazol-4-amine], 4.90; with `CCC(C)CC(=O)Nc1cnn(Cc2c(C)noc2C)c1` (centres unmarked) [Example 4-60, N-(1-((3,5-dimethylisoxazol-4-yl)methyl)-1H-pyrazol-4-yl)-3-methylpentanamide], 5.71.
One may read the IC50 as the concentration that inhibits the measured activity by half. Take `Cc1ccc(CN2CC(=O)N(c3cnn(Cc4c(C)noc4C)c3)C2=O)cc1` [Example 10-30, 3-(1-((3,5-dimethylisoxazol-4-yl)methyl)-1H-pyrazol-4-yl)-1-(4-methylbenzyl)imidazolidine-2,4-dione]: the IC50 is 0.06 µM. Further, the pIC50 under setting [2] was 7.19.
As to `Cc1noc(C)c1Cn1cc(N2CCCN(Cc3ccccc3)C2=O)cn1` [Example 9-5], under setting [2], the pIC50 is 5.46.
`Cc1noc(C)c1Cn1cc(N2C(=O)N(CCc3cc(F)cc(F)c3)C(C)(C)C2=O)cn1` [Example 12-70, 1-(3,5-difluorophenethyl)-3-(1-((3,5-dimethylisoxazol-4-yl)methyl)-1H-pyrazol-4-yl)-5,5-dimethylimidazolidine-2,4-dione]: the pIC50 under setting [3] is 6.40.
Turning to `CCCn1c(=O)n(-c2cnn(Cc3c(C)noc3C)c2)c(=O)n1Cc1ccccc1` [Example 10-93, 1-benzyl-4-(1-((3,5-dimethylisoxazol-4-yl)methyl)-1H-pyrazol-4-yl)-2-propyl-1,2,4-triazolidine-3,5-dione], the pIC50 is, setting by setting: under setting [1], 7.22; under setting [2], 7.21.
`Cc1ccccc1CN1CC(=O)N(c2cnn(Cc3c(C)noc3C)c2)C1=O` [Example 10-20, 3-(1-((3,5-dimethylisoxazol-4-yl)methyl)-1H-pyrazol-4-yl)-1-(2-methylbenzyl)imidazolidine-2,4-dione]: the IC50 worked out at 0.1 µM. Further, under setting [2], the pIC50 was 6.88.
Regarding `COc1ccc(C(=O)Nc2cnn(Cc3c(C)noc3C)c2)cc1OC` [Example 4-21, N-(1-((3,5-dimethylisoxazol-4-yl)methyl)-1H-pyrazol-4-yl)-3,4-dimethoxybenzamide], the pIC50 (Table A, read-out: hT2R8 IC50) is 6.25.
As for `Cc1noc(C)c1Cn1cc(N2C(=O)N(Cc3ccc(C#N)cc3)C(C)(C)C2=O)cn1` [Example 12-79, 4-((3-(1-((3,5-dimethylisoxazol-4-yl)methyl)-1H-pyrazol-4-yl)-5,5-dimethyl-2,4-dioxoimidazolidin-1-yl)methyl)benzonitrile], the pIC50 under setting [3] is 7.30.
On to `Cc1noc(C)c1Cn1cc(N2C(=O)N(Cc3cccnc3)C(C)(C)C2=O)cn1` [Example 12-36, 3-(1-((3,5-dimethylisoxazol-4-yl)methyl)-1H-pyrazol-4-yl)-5,5-dimethyl-1-(pyridin-3-ylmethyl)imidazolidine-2,4-dione], for which the pIC50 under setting [1] is 6.66.
Regarding `Cc1noc(C)c1Cn1cc(NC(=O)CCCc2ccccc2)cn1` [Example 4-56, N-(1-((3,5-dimethylisoxazol-4-yl)methyl)-1H-pyrazol-4-yl)-4-phenylbutanamide], the pIC50 (Table A, read-out: hT2R8 IC50) was 6.08.
On to `Cc1noc(C)c1Cn1cc(N2C(=O)CN(Cc3cccc(CN(C)C)c3)C2=O)cn1` [Example 10-37, 1-(3-((dimethylamino)methyl)benzyl)-3-(1-((3,5-dimethylisoxazol-4-yl)methyl)-1H-pyrazol-4-yl)imidazolidine-2,4-dione], for which the IC50 is 1.2 µM. Also, the pIC50 under setting [2] was 5.91.
Taken in the same sequence, the figures for `Cc1noc(C)c1Cn1cc(N2C(=O)CN(Cc3ccc4c(c3)OCO4)C2=O)cn1` [Example 10-36, 1-(benzo[d][1,3]dioxol-5-ylmethyl)-3-(1-((3,5-dimethylisoxazol-4-yl)methyl)-1H-pyrazol-4-yl)imidazolidine-2,4-dione] were 0.07 µM and 7.28.
For the compound `COc1ccc(OC)c(C(=O)Nc2cnn(Cc3c(C)noc3C)c2)c1` [Example 4-9, N-(1-((3,5-dimethylisoxazol-4-yl)methyl)-1H-pyrazol-4-yl)-2,5-dimethoxybenzamide], under setting [1], the pIC50 is 6.77.
Still for that read-out and setting: under `Cc1cc(CN2C(=O)N(c3cnn(Cc4c(C)noc4C)c3)C(=O)C2(C)C)n(C)n1` [Example 12-26, 1-((1,3-dimethyl-1H-pyrazol-5-yl)methyl)-3-(1-((3,5-dimethylisoxazol-4-yl)methyl)-1H-pyrazol-4-yl)-5,5-dimethylimidazolidine-2,4-dione] stands 6.64.
Still for that read-out and setting: under `COc1cc(C(=O)Nc2cnn(Cc3c(C)noc3C)c2)cc2c1OCO2` [Example 4-92, N-(1-((3,5-dimethylisoxazol-4-yl)methyl)-1H-pyrazol-4-yl)-7-methoxybenzo[d][1,3]dioxole-5-carboxamide] stands 6.15.
Same read-out and setting: under `Cc1noc(C)c1Cn1cc(N2C(=O)[C@@H]3Cc4ccc(O)cc4CN3C2=O)cn1` [Example 13-1, (S)-2-(1-((3,5-dimethylisoxazol-4-yl)methyl)-1H-pyrazol-4-yl)-7-hydroxy-10,10a-dihydroimidazo[1,5-b]isoquinoline-1,3(2H,5H)-dione] stands 7.70.
On to `Cc1cc(C(=O)Nc2cnn(Cc3c(C)noc3C)c2)n(C)n1` [Example 4-52, N-(1-((3,5-dimethylisoxazol-4-yl)methyl)-1H-pyrazol-4-yl)-1,3-dimethyl-1H-pyrazole-5-carboxamide], for which the pIC50 (Table A, read-out: hT2R8 IC50) was 4.74.
With `COc1cccc(CN2C(=O)N(c3cnn(Cc4c(C)noc4C)c3)C(=O)C2(C)C)n1` [Example 12-40, 3-(1-((3,5-dimethylisoxazol-4-yl)methyl)-1H-pyrazol-4-yl)-1-((6-methoxypyridin-2-yl)methyl)-5,5-dimethylimidazolidine-2,4-dione], under setting [3], the pIC50 was 7.10.
On to `COc1ccnc(CN2CC(=O)N(c3cnn(Cc4c(C)noc4C)c3)C2=O)c1OC` [Example 10-72, 1-((3,4-dimethoxypyridin-2-yl)methyl)-3-(1-((3,5-dimethylisoxazol-4-yl)methyl)-1H-pyrazol-4-yl)imidazolidine-2,4-dione], for which the pIC50 was 6.00 under setting [1] and 6.00 under setting [2].
In the case of `Cc1noc(C)c1Cn1cc(NC(=O)c2ccncc2)cn1` [Example 4-50, N-(1-((3,5-dimethylisoxazol-4-yl)methyl)-1H-pyrazol-4-yl)isonicotinamide], under “Table A, read-out: hT2R8 IC50”, the pIC50 was 5.34.
In the case of `COc1cccc(CN2CC(=O)N(c3cnn(Cc4c(C)noc4C)c3)C2=O)n1` [Example 10-75, 3-(1-((3,5-dimethylisoxazol-4-yl)methyl)-1H-pyrazol-4-yl)-1-((6-methoxypyridin-2-yl)methyl)imidazolidine-2,4-dione], the pIC50 was 6.64 under setting [1] and 6.64 under setting [2].
For `COc1ccc(CN2C(=O)N(c3cnn(Cc4c(C)noc4C)c3)C(=O)C2(C)C)nc1` [Example 12-51, 3-(1-((3,5-dimethylisoxazol-4-yl)methyl)-1H-pyrazol-4-yl)-1-((5-methoxypyridin-2-yl)methyl)-5,5-dimethylimidazolidine-2,4-dione], the pIC50 under setting [3] is 6.72.
Regarding `Cc1noc(C)c1Cn1cc(NC(=O)CC(C)c2ccccc2)cn1` (centres unmarked) [Example 4-12, N-(1-((3,5-dimethylisoxazol-4-yl)methyl)-1H-pyrazol-4-yl)-3-phenylbutanamide], the pIC50 under setting [1] was 6.55.
Consider `COc1ccc(CCN2C(=O)N(c3cnn(Cc4c(C)noc4C)c3)C(=O)C2(C)C)cc1OC` [Example 12-49, 1-(3,4-dimethoxyphenethyl)-3-(1-((3,5-dimethylisoxazol-4-yl)methyl)-1H-pyrazol-4-yl)-5,5-dimethylimidazolidine-2,4-dione], for which the pIC50 under setting [3] is 6.89.
Turning to `COc1ccccc1CC(=O)Nc1cnn(Cc2c(C)noc2C)c1` [Example 4-35, N-(1-((3,5-dimethylisoxazol-4-yl)methyl)-1H-pyrazol-4-yl)-2-(2-methoxyphenyl)acetamide], the pIC50 (Table A, read-out: hT2R8 IC50) was 5.94.
Take `Cc1noc(C)c1Cn1cc(N2C(=O)N(Cc3ccc(F)cc3F)C(C)(C)C2=O)cn1` [Example 12-74, 1-(2,4-difluorobenzyl)-3-(1-((3,5-dimethylisoxazol-4-yl)methyl)-1H-pyrazol-4-yl)-5,5-dimethylimidazolidine-2,4-dione]: the pIC50 under setting [3] is 6.28.
Turning to `Cc1noc(C)c1Cn1cc(NC(=O)c2ccc[nH]2)cn1` [Example 4-13, N-(1-((3,5-dimethylisoxazol-4-yl)methyl)-1H-pyrazol-4-yl)-1H-pyrrole-2-carboxamide], under setting [1], the pIC50 is 6.24.
With `Cc1noc(C)c1Cn1cc(N2C(=O)CN(CCc3cccc4ccccc34)C2=O)cn1` [Example 10-80], the pIC50 under setting [1] is 5.90 and the pIC50 under setting [2] was 6.03.

These data come from patent US9247759B2, “Identification of human T2R receptors that respond to bitter compounds that elicit the bitter taste in compositions, and the use thereof in assays to identify compounds that inhibit (block) bitter taste in compositions and use thereof” (SENOMYX, INC., priority 2007, dated 2016).
